B1: trypsin: protease used at 0.02% to pretreat erythrocytes (protein, UniProt P00760 24-246, looked up)
Serine protease 1: IVGGYTCGANTVPYQVSLNSGYHFCGGSLINSQWVVSAAHCYKSGIQVRLGEDNINVVEGNEQFISASKSIVHPSYNSNTLNNDIMLIKLKSAASLNSRVASISLPTSCASAGTQCLISGWGNTKSSGTSYPDVLKCLKAPILSDSSCKSAYPGQITSNMFCAGYLEGGKDSCQGDSGGPVVCSGKLQGIVSWGSGCAQKNKPGVYTKVCNYVSWIKQTIASN

Tests used:
P-selectin-Ig chimera = assay: nonstatic rotatory adherence assay: erythrocytes on immobilized P-selectin-Ig chimera; format: cell-based, human; conditions: for percent adherence of nonsickle cells to P-selectin with agent / percent adherence of sickle cells to P-selectin with agent: mean±SEM, 100% = untreated nonsickle erythrocytes on BSA or Siglec, 5 mM EDTA or sialidase; for reduction of adherence of nonsickle cells to P-selectin / reduction of adherence of sickle cells to P-selectin: 5 mM EDTA present or RBCs pretreated with 0.1 U/mL sialidase
Method: (§1) 400 ng bovine serum albumin (BSA; Sigma), a sialic acid-binding lectin (Siglec)-6-Ig chimera, mutated Siglec-7-Ig chimera, or P-selectin-Ig chimera was immobilized on microtiter wells. […] These chimeras were applied to the wells in 10 mM carbonate buffer overnight and then blocked with 0.5% BSA in Hanks buffered salt solution (University of California, San Francisco, Cell Culture Facility) before incubation with RBCs using a published rotatory adhesion assay. Erythrocyte adherence to BSA, Siglec-6, mutant Siglec-7, or P-selectin was measured as the number of RBCs observed in 8 random 0.04-mm2 fields for each condition. The adherence data are presented as percent adherence where 100% is the mean number of untreated nonsickle erythrocytes/field in a well in which BSA or Siglec was immobilized.
(§2) To determine whether sialic acid on erythrocytes is a recognition determinant for P-selectin, prior to testing RBC adherence the erythrocytes were treated with sialidase using a published method. Packed RBCs were mixed with an equal volume of buffer or 0.1 U/mL Vibrio cholerae sialidase (Calbiochem, San Diego). […] Efficacy of sialidase on RBCs was confirmed by agglutination with peanut extract lectin (Arachis hypogea lectin, Sigma).
(§3) For each experiment mean adherence was set arbitrarily at 100% for the control data. The mean adherence of data derived from perturbations of control conditions were calculated as a percentage relative to the control. The average of the means from replicate experiments was then calculated. The uncertainty of the estimate of the means from the data distributed in each set is described as SEM. An SEM of 0% resulted when control data sets were normalized to 100%. We used the paired one-tailed Student test to compare changes in adhesion resulting from different perturbations of the system.

Siglec-6-Ig chimera = assay: nonstatic rotatory adherence assay: erythrocytes on immobilized control Siglec-6-Ig chimera; format: cell-based, human; conditions: mean±SEM, RBCs pretreated with sialidase
Method: as §1
To determine whether sialic acid on erythrocytes is a recognition determinant for P-selectin, prior to testing RBC adherence the erythrocytes were treated with sialidase using a published method. Packed RBCs were mixed with an equal volume of buffer or 0.1 U/mL Vibrio cholerae sialidase (Calbiochem, San Diego). […]
For each experiment mean adherence was set arbitrarily at 100% for the control data. The mean adherence of data derived from perturbations of control conditions were calculated as a percentage relative to the control. The average of the means from replicate experiments was then calculated. […]

[1] = tested on: human umbilical vein endothelial cells (HUVECs); assay: static gravity adherence assay with dip rinse: erythrocyte adherence to endothelial monolayers; format: cell-based; conditions: for percent adherence of nonsickle RBCs to thrombin-treated endothelium with agent / percent adherence of nonsickle RBCs to untreated endothelium with agent / percent adherence of sickle cells to thrombin-treated endothelium with agent / percent adherence of sickle cells to untreated endothelium with agent: mean±SEM, 100% = nonsickle RBCs on untreated HUVECs, mAbs 1:200, sLeX 100 μM, sialidase 0.1 U/mL; for percent adherence of nonsickle RBCs to thrombin-treated endothelium with agent / percent adherence of nonsickle RBCs to untreated endothelium with agent / percent adherence of sickle cells to thrombin-treated endothelium with agent / percent adherence of sickle cells to untreated endothelium with agent / reduction of adherence of nonsickle RBCs to untreated endothelium: sLac 500 μM; for reduction of adherence of nonsickle RBCs to thrombin-treated endothelium / reduction of adherence of nonsickle RBCs to untreated endothelium / reduction of adherence of sickle cells to thrombin-treated endothelium / reduction of adherence of sickle cells to untreated endothelium: static, vs no agent, sialidase 0.1 U/mL on RBCs; for reduction of adherence of nonsickle RBCs to thrombin-treated endothelium / reduction of adherence of sickle cells to thrombin-treated endothelium: HUVECs 0.1 U/mL thrombin 5 min; for reduction of adherence of nonsickle RBCs to thrombin-treated endothelium / reduction of adherence of sickle cells to thrombin-treated endothelium / reduction of adherence of sickle cells to untreated endothelium: mAbs 1:200, sLac 500 μM; for reduction of adherence of nonsickle RBCs to untreated endothelium / reduction of adherence of sickle cells to untreated endothelium: untreated HUVECs; for reduction of adherence of nonsickle RBCs to untreated endothelium: mAbs 1:200 on HUVECs; for reduction of adherence of sickle cells to thrombin-treated endothelium / reduction of adherence of sickle cells to untreated endothelium: sickle RBCs; for reduction of adherence compared with sLac present: 100 μM sLeX
Method: Thrombin treatment of human umbilical vein endothelial cells (HUVECs) and the static gravity adherence assay with dip rinse were performed as previously described. When 90% confluent, HUVECs (Clonetics, San Diego, Calif.) were treated with 0.1 U/mL thrombin (Sigma Chemicals, St Louis, Mo.) or medium alone for 5 minutes before assaying erythrocyte adherence. Adherent RBCs were counted microscopically in 8 randomly selected 0.15-mm2 fields for each study condition. The adherence data may be presented as percent adherence where 100% is the mean adherence of nonsickle RBCs to untreated HUVECs.
Because of potential modulatory effects of heparin on adherence, the static adherence assay was used to compare the adhesivity of sickle cells and autologous plasma according to whether they were prepared with citrate anticoagulant or with heparin. […] The contribution of P-selectin to thrombin-enhanced adherence was determined by comparing the effects on adherence of exposing HUVECs to no antibody, a 1:200 dilution of nonblocking P-selectin monoclonal antibodies (mAbs) AC1.2 (BD Pharmingen, San Diego, Calif.), or a 1:200 dilution of blocking P-selectin mAb 9E1 (R & D Systems, Minneapolis, Minn.).
To determine whether sialic acid on erythrocytes is a recognition determinant for P-selectin, prior to testing RBC adherence the erythrocytes were treated with sialidase using a published method. Packed RBCs were mixed with an equal volume of buffer or 0.1 U/mL Vibrio cholerae sialidase (Calbiochem, San Diego).
as §3

RBCs = assay: hemolysis of sialidase-treated RBCs by colorimetric spectrophotometry; format: cell-based, human; conditions: 0.1 U/mL sialidase
Method: as §2

[2] = tested on: thrombin-treated HUVECs (endothelial cell P-selectin); assay: parallel plate flow adhesion of sickle erythrocytes to HUVECs; format: cell-based, human; conditions: n=10
From the text: Blood samples obtained from subjects with sickle cell disease and from healthy control subjects, as approved by the Committee on Human Research at the University of California-San Francisco (UCSF), were drawn into citrate. The buffy coat was removed after the initial centrifugation and after each of 3 subsequent washes of the remaining erythrocytes in phosphate buffered saline (PBS) and one wash in HAH buffer (Hanks balanced salt solution [HBSS; UCSF Cell Culture Facility, San Francisco, Calif.], 1% bovine serum albumin [BSA, Fraction V; Sigma, St Louis, Mo.], 50 mM HEPES [N-2-hydroxyethylpiperazine-N′-2- ethanesulfonic acid; Sigma], pH 7.40). Erythrocytes to be used in flow adhesion studies were suspended to a 0.5% hematocrit. To assess for leukocyte contamination, the erythrocyte preparation was exposed to 10 μg/mL rhodamine 6G, which stains leukocytes but not erythrocytes, and washed 3 times in HAH. No leukocytes were detected in the erythrocyte suspensions prepared using the above protocol. […]
Rolling cells were defined as those sickle cells that were in the same microscopic focal plane as the immobile surface or endothelial monolayer and moving at a distinctly slower velocity than the bulk flow. Those cells determined to be rolling were in contact with the substrata throughout their entire transit through the field of observation, which excludes those cells in brief transient contact with the substrate. Data on rolling adherence are expressed as the mean numbers of rolling red blood cells (cells/mm^2) and the mean rolling velocity of these cells (mm/s) from multiple experiments; error is expressed as SEM. The microscopic field in which adherent cells were measured has an area of 0.15 mm^2 and a volume of 0.038 mm^3. […] The velocity of rolling cells was determined by the time required for a cell to roll across the 0.5-mm field (0.5 mm/s). […] Data on firm adhesion are expressed as the mean numbers of firmly adherent red blood cells in the area described above. Statistical significance was determined using the Student t test. […]

[3] = HUVECs treated with 0.1 U/mL thrombin for 5 minutes vs untreated
[4] = erythrocytes pretreated with 0.02% trypsin, data not shown

Molecule | percent adherence of nonsickle cells to P-selectin with agent (P-selectin-Ig chimera) | percent adherence of sickle cells to P-selectin with agent (P-selectin-Ig chimera) | reduction of adherence of nonsickle cells to P-selectin (P-selectin-Ig chimera) | reduction of adherence of sickle cells to P-selectin (P-selectin-Ig chimera) | percent adherence of nonsickle RBCs to thrombin-treated endothelium with agent [1] | percent adherence of nonsickle RBCs to untreated endothelium with agent [1] | percent adherence of sickle cells to thrombin-treated endothelium with agent [1] | percent adherence of sickle cells to untreated endothelium with agent [1] | reduction of adherence of nonsickle RBCs to thrombin-treated endothelium [1] | reduction of adherence of nonsickle RBCs to untreated endothelium [1] | reduction of adherence of sickle cells to thrombin-treated endothelium [1] | reduction of adherence of sickle cells to untreated endothelium [1] | also measured
O=C(O)CN(CCN(CC(=O)O)CC(=O)O)CC(=O)O [EDTA] | 95%±11% | 177%±18% | 35% | 32% |  |  |  |  |  |  |  |  | 
sialidase: Vibrio cholerae sialidase (Calbiochem) used to treat RBCs | 88%±11% | 182%+17% | no significant effect | 33% | 68%±15% | 53%±13% | 282%±133% | 191%±67% | 81% | 47% | 63% | 36% | percent adherence of nonsickle cells to Siglec-6 after sialidase (Siglec-6-Ig chimera; nonsickle cells): 79%±13%; percent adherence of sickle cells to Siglec-6 after sialidase (Siglec-6-Ig chimera; sickle cells): 157%±18%; hemolysis (RBCs): No hemolysis was detected
CC(=O)N[C@H]1[C@H]([C@H](O)[C@H](O)CO)O[C@@](O[C@H]2[C@@H](O)[C@@H](CO)O[C@@H](O[C@H]3[C@H](O)[C@@H](O)C(O)O[C@@H]3CO)[C@@H]2O)(C(=O)O)C[C@@H]1O (stereo partly shown) [sLac, 3′-sialyl-lactose] |  |  |  |  | 162%±28% | 105%±15% | 304%±74% | 144%±44% | Neither did sLac reduce significantly | not reduced significantly | Neither did sLac reduce significantly | not reduced significantly | 
CC(=O)NC1C(O)CC(OC2C(O)C(CO)OC(OC3C(CO)OC(O)C(NC(C)=O)C3OC3OC(C)C(O)C(O)C3O)C2O)(C(=O)O)OC1C(O)C(O)CO (stereo not shown) [sLeX, sialyl Lewis X (sLeX) tetrasaccharide] |  |  |  |  | 82%±41% | 55%±12% | 196%±38% | 91±8% |  |  |  |  | reduction of adherence compared with sLac present ([1]; nonsickle cells, thrombin-treated endothelial cells): 49%; reduction of adherence compared with sLac present ([1]; nonsickle cells, untreated endothelial cells, not significant): ~48%; reduction of adherence compared with sLac present ([1]; sickle cells, thrombin-treated endothelial cells): 36%; reduction of adherence compared with sLac present ([1]; sickle cells, untreated endothelial cells, not significant): ~37%
thrombin |  |  |  |  |  |  |  |  |  |  |  |  | decrease in rolling velocities of sickle cells [2, 3]: 26%; increase in number of rolling sickle cells [2, 3]: 54%; increase in number of firmly adhered sickle cells ([2]; thrombin treatment of HUVECs vs untreated): 130%
B1 |  |  |  |  |  |  |  |  |  |  |  |  | adhesion of sickle and nonsickle cells to immobilized P-selectin (P-selectin-Ig chimera; [4]): did not reduce significantly; adherence of sickle and nonsickle cells to untreated and thrombin-treated endothelial cells [1, 4]: reduced substantially

— patent publication US20080112955A1, “METHOD AND COMPOSITION FOR PREVENTING PAIN IN SICKLE CELL PATIENTS” (TRF PHARMA, INC., priority 2002, published 2008)
